Literature values, collected in patent US20240057588A1, “HERBICIDAL FORMULATION IN THE FORM OF MICROEMULSION” (RED SURCOS COLOMBIA LTDA, priority 2018, published 2024).

Assays:
[1] = qualitative

Row | Structure (SMILES) | Solubility in water | Solubility in organic solvents / other media [1]
1 | O=C1CCCCC1 [Cyclohexanone] | slightly soluble | soluble in most organic solvents
2 | CN1CCCC1=O [N-Methylpyrrolidone] | miscible | Miscible
3 | O=C(O)CNCP(=O)(O)O [glyphosate, reference compound] | very low | 
